From patent US9949479B2 (priority 2015, dated 2018) come the findings set out here.

Each structure is given as a SMILES string. Converted amounts (≈) assume the structure as drawn. Read-outs that look alike come from different tables or passages of the source.

Assay [1] has as its system Fusarium graminearum. Description: microbe, parasite or virus in culture. Format: cell-based. Particulars: sensitive strains, Fusarium graminearum (both types of fusaria).
Assay [2] concerns Fusarium asiaticum. Description: microbe, parasite or virus in culture. The format is cell-based.
Assay [3] deals with wheat scab. The format is in vivo, Fusarium spp.
The test system of assay [4] is DON toxin synthesis capability of thalli. Also noted: species or system Fusarium spp. Particulars: in vivo.
Assay [5] is classed as in vivo, wheat.
Assay [6] concerns wheat scab. The format is in vivo, Fusarium spp. Particulars: sprayed twice; g ai. agent/mu, Jinggangmycin+Metconazole by row: r16 1+15; r17 3+10; r18 5+5; r19 5+10; r20 5+15; r21 10+3; r22 10+10; r23 10+15; r24 50+3; r25 50+10; r26 50+15; r27 100+5; r28 100+10; Jinggangmycin alone r29 100; r30 50; r31 10; r32 5; r33 3; r34 1; Metconazole alone r35 15; r36 10; r37 5; r38 3; r39 Carbendazim 40.

For assay [7], the system named is leaf blight. Format: in vivo. Particulars: dose as in E145.
Assay [8] deals with powdery mildew. Format: in vivo. Particulars: dose as in E145.
For assay [9], the system named is rust. Format: in vivo. Particulars: dose as in E145.
Assay [10] is classed as in vivo, wheat. Particulars: dose as in E145.
Details of assay [11]: species or system wheat. Particulars: in vivo.
Assay [12] has as its system wheat scab. Format: in vivo, Fusarium spp. Particulars: Serial 29: Carbendazim 50 g a.i. (control agent).
The format of assay [13] is in vivo, wheat. Particulars: Serial 29: Carbendazim 50 g a.i. (control agent).

Turning to `CCOC(=O)C(C#N)=C(N)c1ccccc1` [phenamacril], the ED50 in assay [1] worked out at 0.165 mg/L (≈ 0.763 µM); in [2] (sensitive strains, Fusarium asiaticum (both types of fusaria)) it was 0.165 mg/L (≈ 0.763 µM).
Take `COC(=O)Nc1nc2ccccc2[nH]1` [Carbendazim, carbendazim]: the ED50 in assay [1] and in assay [2] was 0.45 mg/L (≈ 2.35 µM) throughout. In addition, in assay [3] (sprayed twice, g ai. agent/mu, Jinggangmycin+Metconazole by row: r12 0.5+25, r13 1+20, r14 5+5, r15 5+10, r16 5+15, r17 10+3, r18 10+5, r19 10+10, r20 10+15, r21 50+3, r22 50+5, r23 50+10, r24 50+15, r25 100+3, r26 100+5, r27 100+10, r28 100+15, r29 150+3, Jinggangmycin alone r30 0.5, r31 1, r32 5, r33 10, r34 50, r35 100, r36 150, Metconazole alone r37 3, r38 5, r39 10, r40 15, r41 20, r42 25, r4), the “Disease Index Prevention Effect % Actual Prevention Effect” value is reported as 67.5%. For the same molecule, in assay [3] (used for treatment alone), the “prevention effect on head blight” value is recorded as 67.5%. In addition, the “DON Synthesis Capability” value in [4] is 28.94. The “Grain Toxin Content” value in assay [5] (dose by row as in E139) was 4.4 μg of toxin/g of kernels; in [10] it was 5.67 μg of toxin/g of kernels. Also, in assay [5] (used for treatment alone), the “decrease of toxin contamination level in comparison with the blank control” value is reported as 58.5%. Moreover, the “toxin contamination level of grains” value in assay [5] (used for treatment alone) was 4.4 mg/kg of grains. Moreover, in assay [5] (vs blank control, dose by row as in E139), the “DON Contamination Reduction Rate %” value was 58.5%. For the same molecule, the “Disease Index Prevention Effect % Head Blight” value amounted to 38.6% in assay [6] and 49.04% in assay [12]. Besides, the “Disease Index Prevention Effect % Leaf Blight” value in [7] turned out to be 48.5%. Also, the “Disease Index Prevention Effect % Powdery Mildew” value in assay [8] was determined as 52.6%. Moreover, in assay [9], the “Disease Index Prevention Effect % Rust” value turned out to be 61.2%. Further, the “DON Reduction Percentage (%)” value in [10] (vs control) is on record as 55.0%. The “Thousand Kernel Weight” value in assay [11] is 41.6 g. The “Grain Toxin Content (mg of DON/Kg of grain)” value in assay [13] is listed as 4.35 mg of DON/Kg of grain. Moreover, the “Rate of Decrease in Toxin Content in Grains (%)” value in assay [13] amounted to 32.7%.
